Article PMC7537881, “Biochemical screening for SARS-CoV-2 main protease inhibitors” (PLoS ONE, 2020)
Entries after “also recorded” stand apart in the source; their conditions may differ. Read-outs that look alike come from different tables or passages of the source.

Tests used:
SARS-CoV-2 M^pro [1] = target: T1, SARS-CoV-2 M^pro (Severe acute respiratory syndrome coronavirus 2, UniProt P0DTD1); assay: biochemical; settings: 10 μM substrate, 0.5 μM enzyme, triplicate; error = SEM
SARS-CoV-2 M^pro [2] = target: T1, SARS-CoV-2 M^pro; assay type: biochemical; settings: 1 μM Mpro, 10 μM substrate, 40 μM compound
mouse = settings: ref www.pubchem.gov, cited from earlier work
[3] = system: HIV's reverse transcriptase; design: method as in PMID 1517963; settings: biochemical assays; cited from earlier work
[4] = system: human immunodeficiency virus (HIV); design: method as in PMID 1517963; settings: cited from earlier work
SARS-CoV-2 M^pro [5] = target: T1, SARS-CoV-2 M^pro; assay: biochemical; assay type: biochemical; settings: for Km: read-out: Km (Michaelis Menten constant)
[6] = route and species not given; ref www.pubchem.gov; cited from earlier work
Vero-cell = settings: cited from earlier work
SARS-CoV M^pro = settings: cited from earlier work
SARS-CoV = settings: cited from earlier work
rat = settings: cited from earlier work
SARS-CoV-2 = settings: cited from earlier work
hepatitis B virus (HBV) = system: hepatitis B virus (HBV); design: method as in PMID 31798562; settings: cited from earlier work
[7] = 0.5 μM Mpro, substrate 1.25-80 μM, two inhibitor concentrations, error = SEM
[8] = fitted in the kinetics experiment with this inhibitor, error = SEM
[9] = most probable model by SSQ, ΔAIC, ΔBIC (Dynafit)

`CCOc1ccc(C(=O)c2ccc(O)c(O)c2O)cc1` [(4-ethoxyphenyl)-(2,3,4-trihydroxyphenyl)methanone] gave an IC50 (SARS-CoV-2 M^pro [1]) of 9 ± 1.5 µM.

`COc1cc(C(=S)N2CCOCC2)ccc1O` [Vanitiolide (10)] showed an IC50 (SARS-CoV-2 M^pro [1]) of 4.6 ± 0.6 µM.

In the case of `COc1ccc(C(=O)c2ccc(O)cc2)c(O)c1O` [2,3,4'-trihydroxy-4-methoxybenzophenone], the “Inhibitory activity in the screen” value (SARS-CoV-2 M^pro [2]) is reported as “no significant inhibitory activity”.

In the case of `CC1=CC(=O)c2c(O)cccc2C1=O` [Plumbagin (9), Plumbagin], the IC50 (SARS-CoV-2 M^pro [1]) is given as 17.1 ± 9 µM and the LD50 (mouse; oral) is given as 16 mg/kg.

For `COc1cc(-c2ccc(/N=N/c3ccc4c(S(=O)(=O)O)cc(S(=O)(=O)O)c(N)c4c3O)c(OC)c2)ccc1/N=N/c1ccc2c(S(=O)(=O)O)cc(S(=O)(=O)O)c(N)c2c1O` [Chicago Sky Blue (12), Chicago Sky Blue], the IC50 (SARS-CoV-2 M^pro [1]) is given as 7.7 ± 1.6 µM, the “Inhibition of HIV reverse transcriptase” value [3] is given as “inhibit” and the “Inhibition of HIV in cellular assays” value [4] is given as “inhibit”. For the same compound, the Ki (SARS-CoV-2 M^pro [5]; [7]) was 1.3 ± 0.2 µM, the “kcat (turnover number)” value (SARS-CoV-2 M^pro [5]; [8]) was 0.013 s⁻¹ and the Inhibition mechanism (SARS-CoV-2 M^pro [5]; [9]) was “competitive inhibition”. The LD50 (mouse; IV) was 2260 mg/kg.

`CCOc1cccc(C(=O)c2ccc(O)c(O)c2O)c1` [(3-ethoxyphenyl)-(2,3,4-trihydroxyphenyl)methanone] gave an IC50 (SARS-CoV-2 M^pro [1]) of 10.6 ± 1.3 µM.

`C=CC1=C(C)c2cc3[nH]c(cc4nc(cc5[nH]c(cc1n2)c(C)c5CCC(=O)O)C(CCC(=O)O)=C4C)c(C)c3C=C` [Protoporphyrin IX] gave an IC50 (SARS-CoV-2 M^pro [1]) of 23 ± 2.4 µM.

For `O=[N+]([O-])C(Br)(CO)CO` [Bronopol (3), 2-bromo-2-nitropropane-1,3-diol], the IC50 (SARS-CoV-2 M^pro [1]) was 4.4 ± 0.6 µM, the Ki (SARS-CoV-2 M^pro [5]; [7]) was 2.5 ± 0.3 µM and the “kcat (turnover number)” value (SARS-CoV-2 M^pro [5]; [8]) was 0.010 s⁻¹. The Inhibition mechanism (SARS-CoV-2 M^pro [5]; [9]) was “non-competitive”, the Inhibition mechanism (SARS-CoV-2 M^pro [5]; most probable model by SSQ, ΔAIC, ΔBIC (Dynafit), listed as bronopol (3)) was “mixed or non-competitive inhibition” and the LD50 [6] was 180 mg/kg.

In the case of `CCOC(=O)c1cc(=O)oc2cc(O)c(O)cc12` [esculetin-4-carboxylic acid ethyl ester], the “TC50 (median toxic concentration)” value (Vero-cell) is given as over 800 µM, the IC50 (SARS-CoV M^pro) is given as 46 µM and the EC50 (SARS-CoV) is given as 112 µM.

For `O=C1C(Cl)=C(Cl)C(=O)C(Cl)=C1Cl` [Chloranil (8), Chloranil], the LD50 (rat; oral, rat, ref www.pubchem.gov) is listed as 4000 mg/kg and the IC50 (SARS-CoV-2 M^pro [1]) is listed as 4.1 ± 0.8 µM.

In the case of `O=c1c2ccccc2[se]n1-c1ccccc1` [ebselen], the LD50 (rat; in rats) is listed as > 4,600 mg/kg.

In the case of `CC1=C(CCC(=O)O)c2cc3[nH]c(cc4nc(cc5[nH]c(cc1n2)c(C)c5C(C)O)C(C)=C4C(C)O)c(C)c3CCC(=O)O` (stereo not drawn) [Hematoporphyrin (5), Hematoporphyrin], the IC50 (SARS-CoV-2 M^pro [1]) is reported as 3.9 ± 0.6 µM, the Ki (SARS-CoV-2 M^pro [5]; [7]) is reported as 5.9 ± 0.5 µM and the “kcat (turnover number)” value (SARS-CoV-2 M^pro [5]; [8]) is reported as 0.011 s⁻¹. The Inhibition mechanism (SARS-CoV-2 M^pro [5]; [9]) was “non-competitive”, the Inhibition mechanism (SARS-CoV-2 M^pro [5]; most probable model by SSQ, ΔAIC, ΔBIC (Dynafit), listed as hematoporphyrin (5)) was “mixed or non-competitive inhibition” and the LD50 (mouse; IV) was 307 mg/kg.

For `CC(=O)[O][Hg][c]1ccccc1` [Phenylmercuric acetate (2), Phenylmercuric acetate], the LD50 (rat; oral, rat, ref www.pubchem.gov) is listed as 41 mg/kg, the IC50 (SARS-CoV-2 M^pro [1]) is listed as 0.4 ± 0.06 µM and the Inhibition mechanism (SARS-CoV-2 M^pro [5]) is listed as “competitive inhibition”. The Ki (SARS-CoV-2 M^pro [5]) was 0.11 ± 0.03 µM, the “kcat (turnover number)” value (SARS-CoV-2 M^pro [5]) was 0.013 s⁻¹ and the Km (SARS-CoV-2 M^pro [5]) was 52 µM.

In the case of `C[CH2][Hg][S]c1ccccc1C(=O)[O-].[Na+]` [Thimerosal (1), Thimerosal], the LD50 (rat; oral, rat, ref www.pubchem.gov) is given as 75 mg/kg, the IC50 (SARS-CoV-2 M^pro [1]) is given as 0.6 ± 0.1 µM and the Inhibition mechanism (SARS-CoV-2 M^pro [5]) is given as “mixed or non-competitive inhibition; also recorded: Mixed”. For the same compound, the Ki (SARS-CoV-2 M^pro [5]) was 0.6 ± 0.2 µM, the “kcat (turnover number)” value (SARS-CoV-2 M^pro [5]) was 0.010 s⁻¹ and the Km (SARS-CoV-2 M^pro [5]) was 47 ± 8 µM.

For `COC(=O)N[C@H](C(=O)N[C@@H](Cc1ccccc1)[C@@H](O)CN(Cc1ccc(-c2ccccn2)cc1)NC(=O)[C@@H](NC(=O)OC)C(C)(C)C)C(C)(C)C` [atazanavir], the EC50 (SARS-CoV-2) is listed as 2 µM.

In the case of `Cc1cc(-c2ccc(/N=N/c3ccc4c(S(=O)(=O)O)cc(S(=O)(=O)O)c(N)c4c3O)c(C)c2)ccc1/N=N/c1ccc2c(S(=O)(=O)O)cc(S(=O)(=O)O)c(N)c2c1O` [Evans blue (11), Evans blue], the IC50 (SARS-CoV-2 M^pro [1]) is given as 0.2 ± 0.06 µM, the “Inhibition of HIV reverse transcriptase” value [3] is given as “inhibit” and the “Inhibition of HIV in cellular assays” value [4] is given as “inhibit”. For the same compound, the Ki (SARS-CoV-2 M^pro [5]; [7]) was 0.21 ± 0.02 µM, the “kcat (turnover number)” value (SARS-CoV-2 M^pro [5]; [8]) was 0.010 s⁻¹ and the Inhibition mechanism (SARS-CoV-2 M^pro [5]; [9]) was “competitive inhibition”. For the same compound, the LD50 (mouse; IP) was 340 mg/kg and the “Inhibition of HBV in cellular assays” value (hepatitis B virus (HBV)) was “inhibitor”.

With `O=C(OCC1OC(OC(=O)c2cc(O)c(O)c(OC(=O)c3cc(O)c(O)c(O)c3)c2)C(OC(=O)c2cc(O)c(O)c(OC(=O)c3cc(O)c(O)c(O)c3)c2)C(OC(=O)c2cc(O)c(O)c(OC(=O)c3cc(O)c(O)c(O)c3)c2)C1OC(=O)c1cc(O)c(O)c(OC(=O)c2cc(O)c(O)c(O)c2)c1)c1cc(O)c(O)c(OC(=O)c2cc(O)c(O)c(O)c2)c1` (stereo not drawn) [Tannic acid (4), Tannic acid] the IC50 (SARS-CoV-2 M^pro [1]) was 2.1 ± 0.2 µM, the Ki (SARS-CoV-2 M^pro [5]; [7]) was 1.4 ± 0.14 µM and the “kcat (turnover number)” value (SARS-CoV-2 M^pro [5]; [8]) was 0.010 s⁻¹. The Inhibition mechanism (SARS-CoV-2 M^pro [5]; [9]) was “Competitive”, the Inhibition mechanism (SARS-CoV-2 M^pro [5]; most probable model by SSQ, ΔAIC, ΔBIC (Dynafit), listed as tannic acid (4)) was “competitive inhibition” and the IC50 (SARS-CoV M^pro) was 3 µM. For the same compound, the “Relative activity (initial rate / negative control)” value (SARS-CoV-2 M^pro [2]) was 0.0 (SD = 0.014).
